Drawing on US20120071459A1, “BIS-PYRIDYLPYRIDONES AS MELANIN-CONCENTRATING HORMONE RECEPTOR 1 ANTAGONISTS” (GlaxoSmithKline LLC, priority 2009, published 2012), this text covers IC50 for 3 molecules.

By IC50 is commonly meant the concentration at which inhibition is half-maximal. Higher therefore signals weaker potency in that assay.

This test deals with T1, hMCHR1 (Homo sapiens, UniProt Q99705).
T1 construct: expressed in transfected cells; host or cells: HEK293
T1 sequence (Q99705 whole entry): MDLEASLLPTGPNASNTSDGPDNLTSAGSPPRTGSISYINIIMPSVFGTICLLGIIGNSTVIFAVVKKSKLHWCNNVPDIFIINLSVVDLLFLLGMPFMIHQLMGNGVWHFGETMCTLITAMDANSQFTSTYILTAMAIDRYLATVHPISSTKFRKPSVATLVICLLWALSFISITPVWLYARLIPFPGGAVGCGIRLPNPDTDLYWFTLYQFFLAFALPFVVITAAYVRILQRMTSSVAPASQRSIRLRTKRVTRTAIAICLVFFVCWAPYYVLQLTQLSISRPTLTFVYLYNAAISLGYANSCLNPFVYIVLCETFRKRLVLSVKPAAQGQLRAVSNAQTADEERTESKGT
Nature of the test: MCHR1 pIC50 Determination FLIPR Assay. The class given is cell-based. Particulars: HEK293 cells stably transfected with hMCHR1; MCH challenge at 4xEC50; in at least one experimental run. As for the experimental part:
MCHR1 pIC50 Determination FLIPR™ Assay: HEK293 cells stably transfected with hMCHR1 were propagated as adherent cultures at 37° C. in a humidified incubator. Cells were split 1:8 at 90% confluency two times per week. New cell stocks were recovered from storage every two months. Cells were plated in black 384-well plates (Greiner) 24 hours prior to assay at 15,000 cells/well in 50 μL DMEM/F12, 10% FBS, 2 mM l-glutamine. Compounds to be profiled were prepared by making a stock solution at 3×10^−3M in 100% DMSO. The stock solutions were serially diluted 1:4 in 100% DMSO using JANUS (PerkinElmer) liquid handling instrument to allow for an 11 point curve in singlicate. At the time of the assay, the media was removed from the cell plate by aspiration, followed by the addition of 20 μL of loading buffer (Calcium 4 Kit, […]). Following 50 min incubation at 37° C., 10 μL of compound was added to the plates via the FLIPR™ instrument ([…]). The plates were incubated at room temperature for 15 minutes along with an MCH peptide agonist challenge plate. On the FLIPR™, a basal response was collected over 10 seconds followed by the addition of 10 μL of MCH challenge concentration at 4×EC50. Data was collected over 4 minutes and subjected to a nonlinear regression analysis curve fitting program to generate pIC50s.
Consider `O=C1N(c2ccc(-n3ccc(OCc4ccc(Cl)cn4)cc3=O)cn2)CC12CCNCC2` [Example 4, 4-{[(5-chloro-2-pyridinyl)methyl]oxy}-6′-(1-oxo-2,7-diazaspiro[3.5]nonan-2-yl)-2H-1,3′-bipyridin-2-one], for which it took 49 nM to reach half-maximal inhibition (IC50).

As to `O=c1cc(OCc2ccc(Cl)cn2)ccn1-c1ccc(N2CCC3(CC2)CNC3)nc1` [Example 12], the IC50 came out at 54 nM.

Take `O=C1CC2(CCCN(c3ccc(-n4ccc(OCc5ccc(Cl)cn5)cc4=O)cn3)C2)C(=O)N1` (stereo not drawn) [Example 11]: half-maximal inhibition (IC50) required 50 nM.
